Data taken from patent US5378844A, “8-(1-aminocycloalkyl)-1,3-dialkylxanthine derivatives, preparation process and antidepressant, nootropic and psychostimulant composition thereoff” (Biomedica Foscama Industria Chimico-Farmaceutica S.p.A., priority 1992, dated 1995).
Read-outs that look alike come from different tables or passages of the source. One block for each molecule: values may come before it.

Key:
[1] = tested on: White male CD 1 (Charles River) mice; experiment: Antidepressant activity: "Behavioral despair" test (Porsolt); assay type: in vivo; conditions: relative to control group
Experimental: The test described in R. D. Porsolt et al., Arch.Int.Pharmacodyn. 229, 327 (1977), which allows the antidepressant activity of a drug to be evaluated on an animal placed in an unusual, stress-causing environment, such as the water environment, was carried out. White male CD 1 (Charles River) mice weighing 24-35 g were used.
1 h before the immersion in water, the animal is administered the test compound by the intraperitoneal (i.p.) route. […] As the reference substances the xanthines theophylline and caffeine, the nootropically acting drug oxiracetam and the tricyclic antidepressant desipramine were included.

[2] = tested on: White male CD 1 (Charles River) mice; experiment: Nootropic activity: "Passive avoidance" test (amnesia induced by scopolamine); assay type: in vivo; conditions: scopolamine 2 mg/kg i.p.
[3] = molecular target: T1, adenosine A1 receptors (Rattus norvegicus, UniProt P25099); experiment: Binding to the adenosine A1 receptors, (3H)-DPCPX displacement, synaptosomal membranes from rat brain; conditions: for Ki: rat brain synaptosomal membranes, 0.3 nM (3H)-DPCPX, 1 h at 25° C., pH 7.4, Ki from IC50 via Cheng-Prusoff
T1 construct: preparations of sinaptosomial membranes from rat brain; from tissue; host or cells: rat brain synaptosomal membranes
T1 sequence (P25099 1-326): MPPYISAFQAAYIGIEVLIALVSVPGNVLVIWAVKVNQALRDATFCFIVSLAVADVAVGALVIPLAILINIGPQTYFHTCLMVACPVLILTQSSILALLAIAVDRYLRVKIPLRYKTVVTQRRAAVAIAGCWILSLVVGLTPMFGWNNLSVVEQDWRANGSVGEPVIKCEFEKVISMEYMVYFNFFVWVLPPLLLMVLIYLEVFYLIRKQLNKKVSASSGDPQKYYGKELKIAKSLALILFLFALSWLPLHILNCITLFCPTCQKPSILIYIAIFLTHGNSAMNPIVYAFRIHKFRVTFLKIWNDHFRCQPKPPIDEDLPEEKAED
Experimental: The receptor binding tests were carried out on preparations of sinaptosomial membranes from rat brain. Binding to the A1 receptors has been carried out as follows: 200 μg of membrane proteins were incubated for 1 h at 25° C. with the test substance and 0.3 nM (3H)-DPCPX in 400 μl of 50 mM tris-HCl pH=7.4. The non-specific binding was determined with 20 μM R-PIA. The binding to the A2 receptors was carried out by incubating 200 μg of membrane proteins for 1 h at 25° C. with the test substance, 4 nM (3H)-NECA and 50 nM CPA. The non-specific binding was determined with 200 μM CPA. The incubations were blocked by centrifugal methods and the separation of the bound from free material was carried out, followed by determination of the contained radioactivity by liquid scintillation. The dosis-inhibition curves were obtained by assaying the receptor displacement at 14 different concentrations of the test substance (all the tests are carried out in triplicate). The tested substances were dissolved into dimethylsulfoxide and diluted in 50 mM Tris-HCl, buffer pH=7.4. The IC50 values were determined by means of non-linear regression curves and transformed into Ki values according to the Cheng-Prusoff equation.

[4] = tested on: Male white CD 1 (Charles River) mice; experiment: Antidepressant activity: antagonism to reserpine (hypothermia induced by reserpine); assay type: in vivo; conditions: 4 h after reserpine 2.5 mg/kg i.p.
Experimental: Male white CD 1 (Charles River) mices weighing 23-35 g were used. Before every test, the basal rectal temperature of every mouse is registered. […] The rectal temperature is measured again at t=O and 30', 60', 90' and 120' after administration of the drug.

[5] = tested on: Male Wistar (Charles River) rats; experiment: Locomotor activity: "Activity cage" test; assay type: in vivo; conditions: Rattus norvegicus, ip, read-out: DE50 (ED50 for % increase of spontaneous motion activity)
From the text: This test allows the spontaneous locomotor activity of the animal to be studied. Male Wistar (Charles River) rats weighing 150-250 g were used. […] The printer connected to the system records the number of movements performed by the rats within the first 5' from the moment they enter the cage.

[6] = molecular target: T2, adenosine A2 receptors (Rattus norvegicus, UniProt P30543); experiment: Binding to the adenosine A2 receptors, (3H)-NECA + 50 nM CPA, synaptosomal membranes from rat brain; conditions: 4 nM (3H)-NECA and 50 nM CPA, 1 h at 25° C., Ki from IC50 via Cheng-Prusoff
T2 construct: preparations of sinaptosomial membranes from rat brain; from tissue; host or cells: rat brain synaptosomal membranes
Experimental: The receptor binding tests were carried out on preparations of sinaptosomial membranes from rat brain.
200 μg of membrane proteins were incubated for 1 h at 25° C. with the test substance and 0.3 nM (3H)-DPCPX in 400 μl of 50 mM tris-HCl pH=7.4. The non-specific binding was determined with 20 μM R-PIA. The binding to the A2 receptors was carried out by incubating 200 μg of membrane proteins for 1 h at 25° C. with the test substance, 4 nM (3H)-NECA and 50 nM CPA. The non-specific binding was determined with 200 μM CPA.
The incubations were blocked by centrifugal methods and the separation of the bound from free material was carried out, followed by determination of the contained radioactivity by liquid scintillation. The dosis-inhibition curves were obtained by assaying the receptor displacement at 14 different concentrations of the test substance (all the tests are carried out in triplicate). The tested substances were dissolved into dimethylsulfoxide and diluted in 50 mM Tris-HCl, buffer pH=7.4. The IC50 values were determined by means of non-linear regression curves and transformed into Ki values according to the Cheng-Prusoff equation.

[7] = 10 mg/kg i.p., 1 h before immersion
[8] = 30' before activity cage, movements within first 5', relative to control group
[9] = dose 10 (unit not given), i.p. 1 h before acquisition trial

T2 sequence (P30543 whole entry): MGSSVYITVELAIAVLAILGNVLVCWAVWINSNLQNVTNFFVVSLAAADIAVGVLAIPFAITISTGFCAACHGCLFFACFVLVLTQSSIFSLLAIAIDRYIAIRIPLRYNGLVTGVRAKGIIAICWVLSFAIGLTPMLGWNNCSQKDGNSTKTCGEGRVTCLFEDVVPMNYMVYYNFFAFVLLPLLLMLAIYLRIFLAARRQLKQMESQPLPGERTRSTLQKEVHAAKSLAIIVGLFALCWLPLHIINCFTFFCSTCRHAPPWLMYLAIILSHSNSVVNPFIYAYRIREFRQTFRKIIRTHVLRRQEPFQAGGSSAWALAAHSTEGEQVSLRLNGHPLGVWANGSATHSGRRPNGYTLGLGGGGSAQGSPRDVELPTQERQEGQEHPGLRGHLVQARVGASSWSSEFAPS

Structure (SMILES): NC(=O)CN1CC(O)CC1=O (stereo not drawn) [OXIRACETAM]
% VARIATION OF MOTIONLESSNESS TIME LENGTH ([1]; 500 mg/kg i.p.): -29.07%
ANTIAMNESIC ACTIVITY (percentage of animals that do not trespass the door) ([2]; dose 1000 (os) (unit not given)): 40%

Ki [3]: 166 nM
Structure (SMILES): CCCn1c(=O)c2[nH]c(C3(NS(C)(=O)=O)CCCC3)nc2n(CCC)c1=O [COMPOUND EX. 8, 1,3-dipropyl-8-(1-methanesulfonylaminocyclopenthyl)xanthine]

Ki [3]: 6990 nM
Structure (SMILES): CCCn1c(=O)c2[nH]c(C3(NC(=O)CC(=O)O)CCCC3)nc2n(CCC)c1=O [COMPOUND EX. 12, 1,3-dipropyl-8-(1-emimalonamidocyclopentyl)xanthine]

Ki [3]: 115 nM
Structure (SMILES): CCCn1c(=O)c2[nH]c(C3(NC(=O)c4ccccc4)CCCC3)nc2n(CCC)c1=O [COMPOUND EX. 6, 8-(1-benzoylaminocyclopentyl)-1,3-dipropylxanthine]
% VARIATION OF MOTIONLESSNESS TIME LENGTH [1, 7]: -24.22%

Structure (SMILES): CNCCC=C1c2ccccc2CCc2ccccc21 [NORTRIPTYLINE]
Δ TEMPERATURE (maximum temperature variation relative to t=0) ([4]; 10 mg/kg i.p.): +2.34 °C

Structure (SMILES): Cn1c(=O)c2[nH]c(-c3ccccc3)nc2n(C)c1=O [8-PHENYLTHEOPHYLINE]
ED50 [5, 8]: 6.01 mg/kg
ANTIAMNESIC ACTIVITY (percentage of animals that do not trespass the door) [2, 9]: 40%

Ki [3]: 108 nM
Structure (SMILES): CCCn1c(=O)c2[nH]c(C3(NC(=O)OCC)CCCC3)nc2n(CCC)c1=O [COMPOUND EX. 10, 1,3-dipropyl-8-(1(N-ethoxycarbonylamino)cyclopentyl)xanthine]

Structure (SMILES): CNCCCN1c2ccccc2CCc2ccccc21 [DESIPRAMINE]
% VARIATION OF MOTIONLESSNESS TIME LENGTH ([1]; 15 mg/kg i.p.): -24.50%
Δ TEMPERATURE (maximum temperature variation relative to t=0) ([4]; 16 mg/kg i.p.): +1.39 °C
ANTIAMNESIC ACTIVITY (percentage of animals that do not trespass the door) ([2]; dose 45 (unit not given), i.p. 1 h before acquisition trial): 30%

Structure (SMILES): Cn1c(=O)c2[nH]cnc2n(C)c1=O [THEOPHYLLINE, 1,3-dimethylxanthine]
% VARIATION OF MOTI[…] LENGTH ([1]; 18.7 mg/kg (os)): -48.88%
Δ TEMPERATURE (maximum temperature variation relative to t=0) ([4]; 20 mg/kg i.p.): +0.81 °C
ED50 [5]: ~3.75 mg/kg
ANTIAMNESIC ACTIVITY (percentage of animals that do not trespass the door) ([2]; dose 20 (unit not given), i.p. 1 h before acquisition trial): 30%

Structure (SMILES): Cn1c(=O)c2c(ncn2C)n(C)c1=O [CAFFEINE]
% VARIATION OF MOTI[…] LENGTH ([1]; 25 mg/kg (os)): -30.34%
Δ TEMPERATURE (maximum temperature variation relative to t=0) ([4]; 20 mg/kg i.p.): +1.63 °C
ED50 [5]: 4.33 mg/kg
ANTIAMNESIC ACTIVITY (percentage of animals that do not trespass the door) [2, 9]: 60%

Ki [3]: 26 nM
SELECTIVITY (A2/A1) ([3]; ratio of Ki,A2 to Ki,A1): 2100
Ki [6]: 54600 nM
Structure (SMILES): CCCn1c(=O)c2[nH]c(C3(N)CCCC3)nc2n(CCC)c1=O [COMPOUND EX. 1, 8-(1-aminocyclopentyl)-1,3-dipropylxanthine]
% VARIATION OF MOTIONLESSNESS TIME LENGTH [1, 7]: -28.33%
% VARIATION OF MOTIONLESSNESS TIME LENGTH ([1]; 20 mg/kg i.p., 1 h before immersion): -42.93%
Δ TEMPERATURE (maximum temperature variation relative to t=0) ([4]; 10 mg/kg i.p.): +0.26 °C
Δ TEMPERATURE (maximum temperature variation relative to t=0) ([4]; 20 mg/kg i.p.): +0.71 °C
ED50 [5, 8]: 0.492 mg/kg
ANTIAMNESIC ACTIVITY (percentage of animals that do not trespass the door) [2, 9]: 80%
